Source: patent publication US20230123334A1, “AMINO LIPID COMPOUND, PREPARATION METHOD THEREFOR, AND APPLICATION THEREOF” (SHENZHEN SHENXIN BIOTECHNOLOGY CO., LTD., priority 2020, published 2023)

How the values were obtained:
Type in all cases: cell-based
MCF7 cells [1] = assay: Transfection of MCF7 cell line, DNA vectors; parameters: concentration or dose not given beside the values; conditions: plasmid DNA, GFP cells / total cells
Method: (§1) Cell line: MCF7 cells (ATCC HTB-22)
Medium DMEM supplemented with […] fetal bovine serum
(§2) Screening: cell transfection on 96-well plates
Detection (readout): percentage of the number of GFP fluorescent cells relative to the total number of cells (the total number of cells was determined using nucleus dye Hoechst). Lipofectamine2000 was used as the positive control, according to the manufacturer's instructions.
Method: the experimental method was basically the same with Example 4.

Hela cells [2] = assay: Transfection of Hela cell line, DNA vectors; conditions: 75 ng plasmid DNA, GFP cells / total cells
Procedure, shortened: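 Amino lipid/DOPE liposomes in sodium acetate pH 5.6 were complexed with 75 ng psin-EGFP-IRES-Puro plasmid for 30 min at room temperature, then mixed with 3-5×10^4 Hela cells in DMEM/10% FBS at 37° C. Hoechst stain after 20-24 h, imaging after a further 20-24 h. Efficiency = GFP-positive cells / total nuclei.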

Hela cells [3] = assay: Transfection of Hela cell line, mRNA vectors; conditions: 50 ng EGFP mRNA per well
Procedure, shortened: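 Transfection efficiency was scored as GFP-fluorescent cells over Hoechst-stained total nuclei, with Lipofectamine2000 as reference reagent. Each well of HeLa cells, grown in DMEM plus 10% FBS, received 50 ng EGFP mRNA.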

MCF7 cells [4] = assay: Transfection of MCF7 cell line, mRNA vectors; conditions: 50 ng EGFP mRNA per well
Method: as §1
Medium: DMEM supplemented with 10 fetal bovine serum (Invitrogen)
as §2
Detection (readout): percentage of the number of GFP fluorescent cells relative to the total number of cells (the total number of cells was determined using nucleus dye Hoechst). Lipofectamine2000 (Invitrogen) was used as the positive control.
Method: the experimental method was basically the same with Example 4, and the mass of EGFP mRNA (TriLink) for transfection was 50 ng per well.

| SMILES | Absolute DNA transfection efficiency in MCF7 cells (MCF7 cells [1]) [%] | Absolute DNA transfection efficiency in Hela cells (Hela cells [2]) [%] | Absolute mRNA transfection efficiency in Hela cells (Hela cells [3]) [%] | Absolute mRNA transfection efficiency in MCF7 cells (MCF7 cells [4]) [%] |
| --- | --- | --- | --- | --- |
| CCCCCCCCCNc1nc(NCC2CCN(C)CC2)nc(SCCCCCCCCC)n1 [Compound S9N9D10] | 38.9 | 17.6 | 17.6 | 29.6 |
| CCCCCCCCCNc1nc(NCCN2CCN(C)CC2)nc(SCCCCCCCCC)n1 [Compound S9N9D5] | 21.2 | 23.9 | 23.9 | 8.3 |
| CCCCCCCCCCCCNc1nc(NCCN2CCN(C)CC2)nc(SCCCCCCCC)n1 [Compound S8N12D5] | 29.2 | 20.8 | 20.8 | 19.7 |
| CCCCCCCCCCCCSc1nc(NCCN2CCCC2)nc(SCCCCCCC)n1 [Compound S7S12D3] | 3.0 | 4.9 | 4.9 | 9.4 |
| CCCCCCCCCCCCSc1nc(NCC2CCN(C)CC2)nc(SCCCCCCC)n1 [Compound S7S12D10] | 44.7 | 10.6 | 10.6 | 47.5 |
| CCCCCCCCCCCCCNc1nc(NCCCN2CCN(C)CC2)nc(SCCCCCCCC)n1 [Compound S8N13D9] | 25.8 | 13.9 | 13.4 | 13.3 |
| CCCCCCCCCNc1nc(NCCCN2CCOCC2)nc(SCCCCCCCCC)n1 [Compound S9N9D8] | 7.8 | 7.4 | 7.4 | 2.6 |
| CCCCCCCCCCCCNc1nc(NCCCN(C)C)nc(SCCCCCCCC)n1 [Compound S8N12D6] | 25.5 | 39.3 | 39.3 | 22.5 |
| CCCCCCCCCNc1nc(NCCCN2CCN(C)CC2)nc(SCCCCCCCCC)n1 [Compound S9N9D9] | 42.3 | 25.6 | 25.6 | 21.0 |
| CCCCCCCCCCCSc1nc(NCCCCCCC)nc(NCCN2CCN(C)CC2)n1 [Compound S11N7D5] | 4.7 | 11.4 | 11.4 | 3.4 |
| CCCCCCCCCCCSc1nc(NCCCCCCC)nc(NCCCN(C)C)n1 [Compound S11N7D6] | 16.2 | 17.0 | 17.0 | 4.2 |
| CCCCCCCCCCCCNc1nc(NCCN2CCCC2)nc(SCCCCCCCC)n1 [Compound S8N12D3] | 13.7 | 8.8 | 8.9 | 20.7 |
| CCCCCCCCCCCSc1nc(NCCCN2CCN(C)CC2)nc(SCCCCCCC)n1 [Compound S7S11D9] | 44.5 | 12.9 | 12.9 | 3.6 |
| CCCCCCCCCCCSc1nc(NCCCN(C)C)nc(SCCCCCCC)n1 [Compound S7S11D6] | 38.1 | 14.5 | 14.5 | 26.1 |
| CCCCCCCCCNc1nc(NCCN2CCCC2)nc(SCCCCCCCCC)n1 [Compound S9N9D3] | 8.6 | 27.4 | 27.4 | 12.1 |
| CCCCCCCCCCCSc1nc(NCCCCCCC)nc(NCC2CCN(C)CC2)n1 [Compound S11N7D10] | 10.1 | 14.7 | 14.7 | 9.0 |
| CCCCCCCCCCCSc1nc(NCCCCCCC)nc(NCCCN2CCOCC2)n1 [Compound S11N7D8] | 1.7 | 6.7 | 6.7 | 3.2 |
| CCCCCCCCCCCSc1nc(NCCCCCCC)nc(NCCCN2CCN(C)CC2)n1 [Compound S11N7D9] | 5.8 | 8.3 | 8.3 | 5.1 |
| CCCCCCCCCCCCNc1nc(NCC2CCN(C)CC2)nc(SCCCCCCCC)n1 [Compound S8N12D10] | 40.6 | 22.6 | 22.6 | 23.1 |
| CCCCCCCCCCCCSc1nc(NCCCN(C)C)nc(SCCCCCCC)n1 [Compound S7S12D6] | 52.1 | 5.8 | 5.8 | 19.1 |
| CCCCCCCCCCCCCNc1nc(NCCCN2CCOCC2)nc(SCCCCCCCC)n1 [Compound S8N13D8] | 0.9 | 6.6 | 6.6 | 0.4 |
| CCCCCCCCCCCCSc1nc(NCCCN2CCN(C)CC2)nc(SCCCCCCC)n1 [Compound S7S12D9] | 14.6 | 2.9 | 2.9 | 21.2 |
| CCCCCCCCCCCCCNc1nc(NCCN2CCCC2)nc(SCCCCCCCC)n1 [Compound S8N13D3] | 19.9 | 15.7 | 15.7 | 18.1 |
| CCCCCCCCCCCSc1nc(NCCN2CCCC2)nc(SCCCCCCC)n1 [Compound S7S11D3] | 6.4 | 4.8 | 4.8 | 6.7 |
| CCCCCCCCCCCCNc1nc(NCCCN2CCN(C)CC2)nc(SCCCCCCCC)n1 [Compound S8N12D9] | 32.0 | 24.4 | 24.1 | 16.4 |
